Results on 6 molecules are retold here after patent publication US6903108B2, “Fungicidal mixtures based on amide compounds and pyridine derivatives” (BASF Aktiengesellschaft, priority 1997, dated 2005).

The subject of experiment [1] is Botrytis cinerea. Briefly: Activity against Botrytis cinerea on bell pepper leaves (Use Example 1). The note with it: in vivo.
The subject of experiment [2] is Botrytis cinerea. The experiment can be described thus: Activity against Botrytis cinerea on bell peppers, green fruit disks (Use Example 2). It counts as in vivo.

Each structure is given as a SMILES string. Values joined by “and” are separate entries in the source; they are usually repeats but may differ in a detail not shown here. Equal values may be shown once.

For `CN(C)S(=O)(=O)N(SC(F)(Cl)Cl)c1ccccc1` [Compound IXa, dichlofluanid], in experiment [1], the “Efficacy in % of the untreated control” value came out at 0%.
With `O=C1c2ccccc2C(=O)N1SC(Cl)(Cl)Cl` [Compound VII, folpet], the “Efficacy in % of the untreated control” value in experiment [1] and in experiment [2] (in vivo) was 0% each time.
In the case of `N#Cc1c[nH]cc1-c1cccc2c1OC(F)(F)O2` [Compound IV, fludioxinil], the “Efficacy in % of the untreated control” value in experiment [2] (in vivo) amounted to 0%.
In the case of `O=C(Nc1ccccc1-c1ccc(F)cc1)c1cccnc1Cl` [Compound I.1], the “Efficacy in % of the untreated control” value in experiment [2] (in vivo) worked out at 0%.
Take `O=[N+]([O-])c1cc(C(F)(F)F)c(Cl)c([N+](=O)[O-])c1Nc1ncc(C(F)(F)F)cc1Cl` [Compound VIII, fluazinam]: the “Efficacy in % of the untreated control” value in experiment [2] (16 ppm active ingredient in the spray liquor, green bell pepper fruit disks, 4 days at 18° C.) worked out at 0%; in experiment [2] (31 ppm active ingredient in the spray liquor, green bell pepper fruit disks, 4 days at 18° C.), 0%.
With `O=C(Nc1ccccc1-c1ccc(Cl)cc1)c1cccnc1Cl` [Compound I.2], the “Efficacy in % of the untreated control” value in experiment [1] is 67% and 44%.
